Reference: ChEMBL document CHEMBL1201862, “PubChem BioAssay data set” (2004)
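Five compound concentrations were applied to cells in 96-well plates for 48 hours; endpoints were derived by simple linear interpolation of the resulting dose-response curve. GI50 = concentration required for 50% inhibition of growth.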 Calls of active or inactive are those of the source. No stated cut-off is given here; in the data, active = GI50 up to about 1.1 µM and inactive = higher.

Columns and labels:
Test in all cases: growth of human tumour cells (NCI), 48 h
[1] = test system: SF-539
[2] = test system: NCI-H460
[3] = test system: PC-3
[4] = test system: U-251
[5] = test system: OVCAR-5
[6] = test system: SN12C
[7] = test system: HCC 2998
[8] = test system: K562
[9] = test system: COLO 205
[10] = test system: CAKI-1
[11] = test system: RXF 393
[12] = test system: Malme-3M
[13] = test system: 786-0
[14] = test system: A549
[15] = test system: MDA-MB-231
[16] = test system: SK-MEL-28
[17] = test system: MOLT-4
[18] = test system: SNB-19
[19] = test system: MDA-N
[20] = test system: KM12
[21] = test system: MDA-MB-435
[22] = test system: SR
[23] = test system: SK-MEL-5
[24] = test system: EKVX
[25] = test system: HCT-116
[26] = test system: CCRF-CEM
[27] = test system: Hs-578T
[28] = test system: OVCAR-4
[29] = test system: BT-549
[30] = test system: NCI-H522
[31] = test system: HT-29
[32] = test system: ACHN
[33] = test system: SF-295
[34] = test system: SW-620
[35] = test system: MCF7
[36] = test system: NCI-H226
[37] = test system: RPMI-8226
[38] = test system: UO-31
[39] = test system: UACC-257
[40] = test system: DU-145
[41] = test system: NCI/ADR-RES
[42] = test system: HOP-62
[43] = test system: IGROV-1
[44] = test system: OVCAR-3
[45] = test system: A498
[46] = test system: HOP-92
[47] = test system: LOX IMVI
[48] = test system: SF-268
[49] = test system: SNB-75
[50] = test system: NCI-H23
[51] = test system: TK-10
[52] = test system: HCT-15
[53] = test system: OVCAR-8
[54] = test system: HL-60

Measured: GI50

Nc1nc(O)c([I+]c2ccccc2)c(=O)[nH]1
> 100 µM: [52]
inactive: [1] > 100 µM | [2] > 100 µM | [3] > 100 µM | [4] > 100 µM | [5] > 100 µM | [6] > 100 µM | [7] > 100 µM | [8] > 100 µM | [9] > 100 µM | [10] > 100 µM | [11] > 100 µM | [12] > 100 µM | [13] > 100 µM | [14] > 100 µM | [15] > 100 µM | [16] > 100 µM | [17] > 100 µM | [18] > 100 µM | [19] > 100 µM | [20] > 100 µM | [21] > 100 µM | [22] > 100 µM | [23] > 100 µM | [24] > 100 µM | [25] > 100 µM | [26] > 100 µM | [27] > 100 µM | [28] > 100 µM | [29] 57.1 µM | [30] > 100 µM | [31] > 100 µM | [32] > 100 µM | [33] > 100 µM | [34] > 100 µM | [35] > 100 µM | [36] > 100 µM | [37] > 100 µM | [38] 85.1 µM | [39] > 100 µM | [40] > 100 µM | [41] > 100 µM | [42] > 100 µM | [43] > 100 µM | [44] > 100 µM | [45] > 100 µM | [46] > 100 µM | [47] > 100 µM | [48] > 100 µM | [49] > 100 µM | [50] > 100 µM | [51] > 100 µM | [53] > 100 µM | [54] > 100 µM
